Data on nine compounds can be found in patent US20240199558A1, “2,4,6-TRISUBSTITUTED 1,3,5-TRIAZINES AS MODULATORS OF CX3CR1” (ASTRAZENECA AB, priority 2022, published 2024).

Assay [1] concerns the target T1, CX3CR1 (Homo sapiens (Human), UniProt P49238). Put plainly: hCX3CR1 [125I]-CX3CL1 displacement binding (SPA). The conditions noted are these: CHO-hCX3CR1 membranes, [125I]-CX3CL1, SPA beads. The procedure:
hCX3CR1 [^125I]-CX3CL1 Displacement Binding (SPA)
CHO-hCX3CR1 membranes (3 μg per well) together with […] [^125I]-CX3CL1 (Perkin Elmer) and different concentrations of competitor compound were incubated together with 400 μg/well WGA coated PVT SPA beads (Perkin Elmer) in 50 mM HEPES (pH 7.4), 10 mM MgCl2, 1 mM EDTA and 0.1% Gelatin in a Greiner polystyrene flat-bottom 384-well plate. The plate was incubated for 20 h at room temperature before the radioactivity was measured using a MicroBeta Trilux reader (PerkinElmer). The DMSO concentration was held constant at 1%.

The target of assay [2] is T1, CX3CR1. Description: hCX3CR1 [3H]-AZD8797 competitive binding assay (filter). The conditions noted are these: CHO-hCX3CR1 membranes, 2 nM [3H]-AZD8797. Summed up: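 Filtration radioligand displacement assay: competitor titrations compete with 2 nM [3H]-AZD8797 for membranes from CHO cells expressing hCX3CR1 (9 μg/well). Incubation was 2 h at room temperature in HEPES pH 7.4 with MgCl2, CaCl2, 0.5% BSA and 1% DMSO. Filters were washed with ice-cold high-salt (500 mM NaCl) buffer, and retained radioactivity was scintillation-counted.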

Assay [3] addresses T1, CX3CR1. Put plainly: CX3CR1-dependent cell adhesion to recombinant CX3CL1 in human whole blood under flow. Type of assay: cell-based. The conditions noted are these: recombinant full-length CX3CL1. On the procedure: Adhesion of cells to recombinant full-length human CX3CL1 was monitored under physiological flow using a Cellix VenaFlux microfluidics platform with connected fluorescent microscope and camera, and using Vena8 Fluoro+ Biochips (Cellix) pre-coated with anti-His monoclonal antibody (25 μg/mL; R&D Systems) and His-tagged full-length CX3CL1 (15 μg/mL; R&D Systems).
CX3CR1-Dependent Cell Adhesion to Recombinant CX3CL1 in Human Whole Blood Under Flow
Human whole blood from healthy volunteers was collected using heparin as anti-coagulant. […] Compound stocks or DMSO vehicle were added to 0.5 or 1.0 ml aliquots of blood such that the final concentration of DMSO was 0.1%, corresponding to a 1000-fold dilution of compound stock. Blood was pre-incubated with compound at room temperature for 60 minutes with gentle shaking. DiOC6 (Invitrogen, 5 μM) or Hoechst 33342 (Invitrogen, 300 μM) dye was subsequently added to fluorescently label cells and enable their detection during the flow adhesion assay. To monitor adhesion, blood was allowed to flow through the channels of a Vena8 Fluoro+ biochip at 2.25 dynes per cm^2 for 3-6 minutes prior to capturing images for quantification. Fluorescent cells adhering to the channels were counted and the mean and/or total count across five to six images in each channel were used for calculating concentration-response curves.

The term IC50 denotes the concentration needed to halve the response being measured.

T1 sequence (P49238 whole entry): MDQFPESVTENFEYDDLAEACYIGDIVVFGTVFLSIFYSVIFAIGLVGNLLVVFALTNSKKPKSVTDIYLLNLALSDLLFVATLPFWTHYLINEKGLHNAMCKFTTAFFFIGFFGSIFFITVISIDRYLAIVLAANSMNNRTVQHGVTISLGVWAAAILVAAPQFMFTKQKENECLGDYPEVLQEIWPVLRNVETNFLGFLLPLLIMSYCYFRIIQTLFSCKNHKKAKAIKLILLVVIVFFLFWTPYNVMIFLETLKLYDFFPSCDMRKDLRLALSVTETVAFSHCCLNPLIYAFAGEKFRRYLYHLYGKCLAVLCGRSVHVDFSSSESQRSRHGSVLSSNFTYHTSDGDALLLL

Turning to `CC(C)C[C@H](CO)Nc1nc(C[C@@H](C)c2cccc(Cl)c2F)nc(NS(C)(=O)=O)n1` (single isomer, unassigned) [Example 4, N-(4-((R*)-2-(3-Chloro-2-fluorophenyl)propyl)-6-(((R)-1-hydroxy-4-methylpentan-2-yl)amino)-1,3,5-triazin-2-yl)methanesulfonamide], the figures for the IC50 in assay [1], in assay [2] and in assay [3] were 68 nM, 17 nM and 499 nM, respectively.
As for `CC(C)C[C@H](CO)Nc1nc(C[C@@H](C)c2ccc(F)cc2F)nc(NS(C)(=O)=O)n1` (single isomer, unassigned) [Example 6, N-(4-((R*)-2-(2,4-Difluorophenyl)propyl)-6-(((R)-1-hydroxy-4-methylpentan-2-yl)amino)-1,3,5-triazin-2-yl)methanesulfonamide], the figures for the IC50 in assay [1], in assay [2] and in assay [3] were 948 nM, 96 nM and 109 nM, respectively.
Turning to `CC(C)C[C@H](CO)Nc1nc(C[C@H](C)c2ccc(F)cc2)nc(NS(C)(=O)=O)n1` (single isomer, unassigned) [Example 80, N-(4-((S*)-2-(4-Fluorophenyl)propyl)-6-(((R)-1-hydroxy-4-methylpentan-2-yl)amino)-1,3,5-triazin-2-yl)methanesulfonamide], the IC50 was 4900 nM in assay [1] and 2210 nM in assay [2].
For the compound `CC(C)C[C@H](CO)Nc1nc(C[C@@H](C)c2ccc(Cl)cc2F)nc(NS(C)(=O)=O)n1` (single isomer, unassigned) [Example 84, N-(4-((R*)-2-(4-Chloro-2-fluorophenyl)propyl)-6-(((R)-1-hydroxy-4-methylpentan-2-yl)amino)-1,3,5-triazin-2-yl)methanesulfonamide], the IC50 in assay [1] was found to be 348 nM; in assay [2], 173 nM.
As for `CC(C)C[C@H](CO)Nc1nc(C[C@@H](C)c2ccc(F)c(F)c2F)nc(NS(C)(=O)=O)n1` (single isomer, unassigned) [Example 88, N-(4-(((R)-1-Hydroxy-4-methylpentan-2-yl)amino)-6-((R*)-2-(2,3,4-trifluorophenyl)propyl)-1,3,5-triazin-2-yl)methanesulfonamide], the IC50 was determined as 32 nM in assay [2] and 115 nM in assay [3].
As to `CC(C)C[C@H](CO)Nc1nc(C[C@H](C)c2ccc(Cl)cn2)nc(NS(C)(=O)=O)n1` (single isomer, unassigned) [Example 149, N-(4-((S*)-2-(5-Chloropyridin-2-yl)propyl)-6-(((R)-1-hydroxy-4-methylpentan-2-yl)amino)-1,3,5-triazin-2-yl)methanesulfonamide], the IC50 in assay [1] and in assay [3] was greater than 30000 nM in each case.
As for `CC(C)C[C@H](CO)Nc1nc(CC(C)c2ccnc(Cl)c2)nc(NS(C)(=O)=O)n1` (stereo in doubt) [Example 26, N-(4-((R*)-2-(2-chloropyridin-4-yl)propyl)-6-(((R)-1-hydroxy-4-methylpentan-2-yl)amino)-1,3,5-triazin-2-yl)methanesulfonamide], the IC50 in assay [1] is 682 nM; in assay [2], 44 nM.
In the same order, the values of `CCOc1cc(C(C)Cc2nc(N[C@@H](CO)CC(C)C)nc(NS(C)(=O)=O)n2)ccn1` (stereo partly drawn) [Example 67, N-(4-(2-(2-Ethoxypyridin-4-yl)propyl)-6-(((R)-1-hydroxy-4-methylpentan-2-yl)amino)-1,3,5-triazin-2-yl)methanesulfonamide] are 1830 nM and 359 nM.
In the same order, the values of `CCC(Cc1nc(N[C@@H](CO)CC(C)C)nc(NS(C)(=O)=O)n1)c1ccccc1F` (stereo partly drawn) [Example 89, N-(4-(2-(2-Fluorophenyl)butyl)-6-(((R)-1-hydroxy-4-methylpentan-2-yl)amino)-1,3,5-triazin-2-yl)methanesulfonamide] are 987 nM and 250 nM.
